According to patent US5300279A, “Organic amine phosphonic acid complexes for the treatment of calcific tumors” (The Dow Chemical Company, priority 1990, dated 1994):
Like-named read-outs stand apart in the source and are kept apart here.

Assays:
[1] = rabbits, three hour, averaged for 5 rabbits
Experimental: Biolocalization studies were also performed in rabbits. The rabbits were injected with 100-250 microliters of the composition into the marginal ear vein. In studies where blood clearance was measured, blood samples were taken through a heparinized cannula placed in the marginal vein of the ear not used for injection. Three hours after injection, a blood sample was taken from each rabbit by cardiac puncture and each animal was sacrificed by injection of a commercial euthanasia solution. After sacrifice, images were obtained by placing the carcass directly on the face of a large field-of-view scintillation camera.
Whenever in the following examples and tables data is presented on the administered dose of radioactivity, the numbers given represent the percentage of the administered dose which localized in the indicated tissue. The ratios of radioactivity observed in bone relative to blood and muscle were calculated based on the percent dose per gram in the bone and in the blood and muscle. Whenever the ratios of radioactivity found in bone to that found in nonosseous tissue is given, the calculation was made as indicated above on a percent dose per gram basis.
Compositions containing Sm-153-EDTMP (compositions prepared as in Example 2) were also tested in rabbits.

[2] = biolocalization of the radionuclide in rats (tissue distribution after tail vein injection); assay type: in vivo, male Sprague Dawley rats; conditions: Sm-153, rats
Experimental: Studies to determine the qualitative biodistribution of the various radionuclides were conducted by injecting the compositions into rats and obtaining the gamma ray images of the entire animal at various times up to two hours after injection.
Laboratory rats were injected with the above complex (50-100 μl) via the tail vein. After 2 hours, the animals were sacrificed by cervical dislocation and organs and tissues removed. Samples were counted with a NaI counter to determine the biolocalization of the radionuclide.

tumor = test system: tumor
Experimental: An English Setter with a tumor in his pelvis was injected with approximately 19 mCi of a composition containing Sm-153-EDTMP. After 2 hours, the dog was imaged using a scintillation camera.
An Irish Setter with a tumor in the femur was injected with a composition containing Sm-153-EDTMP. The leg was amputated and samples of the tumor and normal bone were analyzed for Sm-153.
An Irish setter with undifferentiated sarcoma metastatic to bone was treated with 16 mCi (0.57 mCi/kg) of a composition containing Sm-153-EDTMP. […] After approximately 3 months, when signs of lameness began to reappear, the dog was given a second treatment of 15 mCi (0.49 mCi/kg), of a composition containing Sm-153-EDTMP.

[3] = 2 hours, ratio of percent dose per gram, average of 5 rats

## O=P([O-])(O)CN(CCN(CP(=O)([O-])O)CP(=O)(O)O)CP(=O)([O-])O.[153Sm+3] [Example 2]
[1]
  % Dose in Blood: 0.12 % Dose
  % Dose in Bone Marrow: 0.15 % Dose
  % Dose in Liver: 0.95 % Dose
  % Dose in Skeleton: 66 % Dose
[1]; 180 min
  % Dose in Urine: 34 % Dose
[1]; ratio of percent dose per gram
  Bone/Blood: 900
  Bone/Muscle: 1200
[2]
  scintillation scans: the radioactivity concentrating in the skeletal system
[2]; 2 hours
  clearance of radioactivity through the kidneys into the urine: Most of the radioactivity not found in the skeleton was cleared through the kidneys into the urine
  radioactivity concentrated in the skeletal system: 55-65%
  soft tissue uptake: very little soft tissue uptake
[2]; 2 hours, average of 5 rats
  % Dose in Blood: 0.032 % Dose
  % Dose in Liver: 0.25 % Dose
  % Dose in Skeleton: 58 % Dose
  % Dose in Urine: 49 % Dose
[2]; [3]
  Bone/Blood: 1800
  Bone/Muscle: 1500
tumor; English Setter, tumor in pelvis, approximately 19 mCi, 2 hours
  uptake of radioactivity in the area of the tumor (scintillation scan): high uptake of radioactivity in the area of the tumor
tumor; English Setter, 2 hours
  scans compared with Tc-99m-MDP: looked very similar to an earlier scan performed using Tc-99m-MDP
tumor; English Setter, compared with Tc-99m
  lesion to normal bone ratio: very similar to that for To-99m
tumor; Irish Setter, tumor in femur, same leg
  amount of Sm-153 in the tumor relative to non-lesionous bone, per gram basis: 15-20 times
tumor; Irish setter, sarcoma metastatic to bone
  scans compared with Tc-99m-MDP: very similar to scans obtained earlier using Tc-99m-MDP
tumor; Irish setter, sarcoma metastatic to bone, 16 mCi (0.57 mCi/kg)
  uptake of Sm-153 in the area of the lesion (scintillation scans): high uptake of Sm-153 in the area of the lesion
